Assay results as given in patent publication CN109475563A, “蛋白酶抑制剂的长效医药组合物” (Taimed Biologics Inc, priority 2016, dated 2017).

How the values were obtained:
[1] = system: single mutations in the protease open reading frame (蛋白酶开放读框); settings: in vitro, site-directed mutagenesis; cited from earlier work
[2] = target: HIV-1 protease (HIV-1蛋白酶) (Human immunodeficiency virus type 1 group M subtype B, UniProt P04585); settings: cited from earlier work
[3] = Dog PK, intramuscular vs subcutaneous nanosuspension of TMB-607; format: in vivo, beagle dog; settings: Fig. 3
[4] = Rat subcutaneous PK, microparticle vs nanosuspension of TMB-607; format: in vivo; settings: SC
[5] = Monkey PK, nanosuspensions of different particle size; format: in vivo
[6] = PK of injectable nanosized TMB-607 (summary statement); format: in vivo; settings: injectable formulation of nanosized TMB-607; species not stated
[7] = system: laboratory-adapted virus (实验室适应病毒); settings: 48-week in vitro selection, increasing TMB-607 concentration; cited from earlier work
[8] = male beagle dog, 60 mg/kg, particle size about 150 nm, 6 weeks

Structure (SMILES): COC(=O)N[C@H](C(=O)NCCCC[C@@H](CO)N(CC(C)C)S(=O)(=O)c1ccc(N)cc1)C(c1ccccc1)c1ccccc1 [TMB-607]
- resistance caused by single mutation (in words) [1]: 单一突变不会导致对TMB-607的明显抗药性
- inhibition of HIV-1 protease (potency, in words) [2]: 效用 and 有效
- selectivity in inhibiting HIV-1 protease (in words) [2]: 选择性 and 有选择性
- AUC0-t, SC versus IM (in words) [3, 8]: 没有在AUC0-t值中观察到明显的差异
- Cmax, IM versus SC (in words) [3, 8]: 肌肉给药路径的Cmax值高于皮下给药路径的Cmax值
- plasma level after single IM or SC injection (in words) ([3]; single IM or SC injection of nanosuspension): 延长了TMB-607的血浆水平
- duration of plasma level above protein-binding-adjusted EC50 ([4]; nano-sized TMB-607, printed as 247 nm, Fig. 2): 14 days
- duration for which TMB-607 plasma level is maintained ([4]; nanosuspension printed as 247 nm, compared with microparticle 2470 nm, Fig. 2): > 14 days
- plasma level above protein-binding-adjusted EC50 for 14 days (in words) ([4]; microparticle 2470 nm, Fig. 2 (general description)): 不能
- Cmax in the initial period (in words) ([4]; rat, microparticle 2470 nm, 16.7 mg/kg): 引人注目的高Cmax
- plasma level above protein-binding-adjusted EC50 for 14 days (in words) ([4]; rat, microparticle 2470 nm, 16.7 mg/kg, Fig. 2): 不能
- release profile (in words) ([4]; rat, nanosuspension 240 nm, 23.5 mg/kg): 持续的释放曲线
- duration of plasma level above protein-binding-adjusted EC50 ([4]; rat, nanosuspension 240 nm, doses printed for microparticle and nanosuspension 16.7 and 23.5 mg/kg respectively, Fig. 2): 14 days
- plasma level and duration of action, smaller particle size (in words) ([5]; 113 nm compared with 214 nm): 较高的血浆水平和较长的作用时间
- plasma level and duration of action, smaller particles (in words) ([5]; monkey, 60 mg/kg, 113 nm versus 214 nm, Fig. 4): 较高的血浆水平和较长的作用时间
- AUC0-t on reducing particle size (in words) ([5]; monkey, injected nanosuspension, 60 mg/kg, 214 nm versus 113 nm, 4 weeks): AUC0-t和t1/2均大致增加
- plasma level (in words) ([5]; particle sizes 214 nm and 113 nm): 都可以延长血浆水平
- duration of stable plasma levels [6]: > 1 month
- mutations selected in protease open reading frame [7]: 四个突变
